{
  "source": "patent US20230372382A1",
  "about": "“USE OF ADENOSINE DIPHOSPHATE RIBOSE FOR ADJUVANT THERAPY WITH RADIATION AND/OR ANTI-CANCER TREATMENT” (PearlsInMires Co., Ltd., priority 2021, published 2023)",
  "key": {"[1]": {"test_system": "Kidney cancer (Caki-1) cells", "assay": "Xenograft model, combination with radiation, tumor volume", "format": "in vivo, BALB/c nude mice", "conditions": "Caki-1 xenograft", "method": "Brain cancer (U-87MG), pancreatic cancer (AsPC-1), breast cancer (MDA-MB-231), or kidney cancer (Caki-1) cells (1×10^7 cells) were inoculated into 5-week-old BALB/c nude mice on the back flank, respectively. Then, when tumors were grown to a volume of approximately 150 mm^3, the mice were divided into three groups: the control group (Control), 2 Gy dose of radiation alone, and a combination administration of 2 Gy dose of radiation+10 mg/kg of ADP-ribose (subcutaneous administration, 3 times a week). The irradiation was performed with an X-Rad 320 irradiator (Precision X-ray, North Branford, CT, USA), wherein the mice were placed by maintaining an appropriate distance from the radiation source for irradiation with a predetermined radiation dose. A lead shield was used to protect the body parts or organs from exposure to radiation, other than the cancerous part of the mouse. The irradiation was performed with a total of 2 Gy of radiation fractionated into two doses of 1 Gy each (for 2 days) at a dose rate of 300 kVp and 150 cGy/min using an X-ray beam filter composed of 12.5 mA and 2.0 mm Al. The tumor size was measured every 6 days using a digital caliper, and the results of changes in tumor volume were compared by the group.\nKidney cancer (Caki-1) cells (1×10^7) were inoculated into 5-week-old BALB/c nude mice on the back flank, and the mice were divided into three groups: the control group (Control), 2 Gy dose of radiation alone, and combination administration of 2 Gy dose radiation+20 mg/kg of ADP-ribose. When the tumors were grown to a volume of approximately 150 mm^3, 2 Gy dose of radiation was irradiated twice at 1 Gy each, and 20 mg/kg of ADP-ribose was injected subcutaneously 3 times a week. The tumor size was measured using a digital caliper, and the results of changes in tumor volume were compared by the group."}, "[2]": {"test_system": "Caki-1 cells", "assay": "ADP-ribose quantitative analysis (ELISA) in cancer cells", "format": "cell-based", "conditions": "16 μM ADP-ribose, 24 hours, P<0.001", "method": "(§1) After culturing, the culture medium was removed, the cells were washed with phosphate-buffered saline, and then RIPA buffer was added and the cells were left on ice for 20 minutes. After scraping the cells, the cells were put in a centrifuge tube and centrifuged for 10 minutes at 10,000 g and 4° C. The supernatant was obtained, and 1% SDS was added, and then the reaction product was boiled at 100° C. for 5 minutes and cooled on ice. The supernatant was centrifuged again at 10,000 g and 4° C. for 10 minutes to obtain the final supernatant, and ADP-ribose was quantitatively analyzed and compared using an ELISA analysis kit (Cell Biolabs, Inc., San Diego, CA, USA).\n(§2) The medium of the cultured cells was removed, and the supernatant prepared by treatment with RIPA buffer and 1% sodium dodecyl sulfate (SDS) was used for ELISA analysis to detect and analyze ADP-ribose."}, "[3]": {"test_system": "U-87MG cells", "assay": "ADP-ribose quantitative analysis (ELISA) in cancer cells", "format": "cell-based", "conditions": "8 μM ADP-ribose, 24 hours, P<0.001", "method": "as §1, §2"}, "[4]": {"test_system": "HCT116 cells", "assay": "ADP-ribose quantitative analysis (ELISA) in cancer cells", "format": "cell-based", "conditions": "8 μM ADP-ribose, 24 hours, P<0.001", "method": "as §1, §2"}, "[5]": {"test_system": "AsPC-1 cells", "assay": "ADP-ribose quantitative analysis (ELISA) in cancer cells", "format": "cell-based", "conditions": "8 μM ADP-ribose, 24 hours, P<0.001", "method": "as §1, §2"}, "[6]": {"test_system": "H1975 cells", "assay": "ADP-ribose quantitative analysis (ELISA) in cancer cells", "format": "cell-based", "conditions": "4 μM ADP-ribose, 24 hours, P<0.001", "method": "as §1, §2"}, "[7]": {"test_system": "Caki-1 cells", "assay": "Change over time in intracellular ADP-ribose, radiation versus ADP-ribose treatment (ELISA)", "format": "cell-based", "conditions": "Caki-1, 16 μM ADP-ribose, even after 24 hours; after radiation back to untreated level from 8 hours", "method": "Brain cancer (U-87MG), kidney cancer (Caki-1), pancreatic cancer (AsPC-1), or breast cancer (MDA-MB-231) cells were cultured in a 6-well plate, respectively, and the cells were divided into the untreated group, the radiation-treated group, and the ADP-ribose-treated group. Irradiation was performed using an X-Rad 320 irradiator (Precision X-ray, North Branford, CT, USA), and cancer cells were treated with a total of 1, 2, and 5 Gy at a dose rate of 300 kVp and 150 cGy/min using an X-ray beam filter composed of 12.5 mA and 2.0 mm Al, respectively. Before treatment and at 4, 8, 16, and 24 hours after treatment, the medium was removed, the cells were washed with phosphate-buffered saline, and then RIPA buffer was added and the products were left on ice for 20 minutes. After scraping the cells, the cells were put in a centrifuge tube and centrifuged for 10 minutes at 10,000 g and 4° C. The supernatant was obtained, and 1% SDS was added, and then the reaction product was boiled at 100° C. for 5 minutes and cooled on ice. The supernatant was centrifuged again at 10,000 g and 4° C. for 10 minutes to obtain the final supernatant, and ADP-ribose was quantitatively analyzed using an ELISA analysis kit (Cell Biolabs, Inc., San Diego, CA, USA). […]"}, "[8]": {"test_system": "Pancreatic cancer (AsPC-1) cells", "assay": "Xenograft model, oral ADP-ribose, tumor volume", "format": "in vivo, BALB/c nude mice", "conditions": "AsPC-1 xenograft, 5 times a week, control about 3194.3", "method": "Pancreatic cancer (AsPC-1) or kidney cancer (Caki-1) cells (1×10^7 cells) were inoculated into 5-week-old BALB/c nude mice on the back flank, and the mice were grown up to approximately 150 mm^3 of the tumor volume. Then, three concentrations of ADP-ribose were administered subcutaneously, intravenously, and orally 3 times a week. The tumor size was measured every 6 days using a digital caliper, and the changes in tumor volume were compared for each group.\nPancreatic cancer (AsPC-1) cells (1×10^7) were inoculated into 5-week-old BALB/c nude mice on the back flank, and the mice were divided into four groups: the control group (Control) and groups administered orally with 10, 40, and 80 mg/kg of ADP-ribose. When the tumors were grown to a volume of approximately 150 mm^3, each concentration of ADP-ribose was orally administered 5 times a week. The tumor size was measured using a digital caliper, and the results of changes in tumor volume were compared by the group."}, "[9]": {"conditions": "ADP-ribose 20 mg/kg s.c. + 2 Gy radiation, P<0.001"}},
  "data": [
    {"smiles": "Nc1ncnc2c1ncn2[C@@H]1O[C@H](COP(=O)(O)OP(=O)(O)OC[C@H]2O[C@@H](O)C(O)C2O)C(O)C1O", "note": "(stereo partly drawn) [ADP-ribose, adenosine diphosphate ribose]", "values": [
      {"measurement": "reduction of tumor volume compared to the control group", "setting": "[1]; [9]", "result": "about 70%"},
      {"measurement": "reduction of tumor volume compared to the group treated with 2 Gy dose of radiation alone", "setting": "[1]; [9]", "result": "about 68%"},
      {"measurement": "final tumor volume", "setting": "[1]; ADP-ribose 20 mg/kg subcutaneous 3 times a week + 2 Gy radiation, control about 2620.5, 2 Gy alone about 2454.5", "result": "about 786.4 mm^3"},
      {"measurement": "amount of ADP-ribose in cells compared to the control group", "setting": "[2]", "result": "remarkably increased significantly"},
      {"measurement": "amount of ADP-ribose in cells compared to the control group", "setting": "[3]", "result": "remarkably increased significantly"},
      {"measurement": "amount of ADP-ribose in cells compared to the control group", "setting": "[4]", "result": "remarkably increased significantly"},
      {"measurement": "amount of ADP-ribose in cells compared to the control group", "setting": "[5]", "result": "remarkably increased significantly"},
      {"measurement": "amount of ADP-ribose in cells compared to the control group", "setting": "[6]", "result": "remarkably increased significantly"},
      {"measurement": "amount of ADP-ribose in the cells over time compared to the control group", "setting": "[7]", "result": "maintained a significant (P<0.001) increase"},
      {"measurement": "final tumor volume", "setting": "[8]; 10 mg/kg oral", "result": 1798.6, "unit": "mm^3"},
      {"measurement": "final tumor volume", "setting": "[8]; 40 mg/kg oral", "result": 1175.9, "unit": "mm^3"},
      {"measurement": "final tumor volume", "setting": "[8]; 80 mg/kg oral", "result": 1056.9, "unit": "mm^3"}
    ]}
  ]
}
